# Test results: patent US11873319B2, “Cyclic di-nucleotide induction of type I interferon” (The Regents of the University of California, priority 2013, dated 2024)
# Legend:
# [1] = biological target: hSTING (Homo sapiens, UniProt Q86WV6); settings: Conlon et al.; cited from earlier work
# [2] = human clinical trials; cited from earlier work
# [3] = tested on: variant STING alleles; assay: UV crosslinking binding assay of variant STING alleles to 32P-c-di-GMP; design: species or system mouse and human; settings: lysates of transfected 293T cells, FIG. 3B
# Procedure: FIG. 1, panels A-F show the variable responsiveness of human STING variants to cyclic-di-nucleotides maps to arginine 232. (Panel A) THP-1 cells were transduced with vectors encoding an shRNA targeting STING or a control shRNA. Cells were then stimulated with cyclic-di-GMP (cdG), dsDNA, cyclic-di-AMP (cdA), poly-inosine:cytosine (pI:C), or Sendai Virus, and induction of human interferon-β mRNA was assessed by quantitative reverse transcriptase PCR. (Panel B) Western blotting confirmed that knockdown of STING was effective. (Panel C) HEK293T cells were transfected with the indicated amounts of various mouse (m) or human (h) STING expression plasmid and then stimulated 6 h later by transfection with synthetic cdG (5 μM). […] STING activation was assessed by use of a co-transfected IFN-luciferase reporter construct. […] IFN induction was measured by qRT-PCR. ND, not detected. […] Binding was quantified by autoradiography. […]
# (Panel A) 293T cells were transfected with the indicated alleles of mouse (m)STING or human (h)STING and were then stimulated with c-di-GMP (cdG). STING activity was detected by the induction of a co-transfected IFN-luciferase reporter construct and expressed as fold-induction over luciferase activity of unstimulated cells. (Panel B) Lysates of transfected 293T cells were UV crosslinked in the presence of α32P-c-di-GMP, resolved by SDS-PAGE, and then analyzed by autoradiography. […]
# hSTING, sequence (Q86WV6 whole entry): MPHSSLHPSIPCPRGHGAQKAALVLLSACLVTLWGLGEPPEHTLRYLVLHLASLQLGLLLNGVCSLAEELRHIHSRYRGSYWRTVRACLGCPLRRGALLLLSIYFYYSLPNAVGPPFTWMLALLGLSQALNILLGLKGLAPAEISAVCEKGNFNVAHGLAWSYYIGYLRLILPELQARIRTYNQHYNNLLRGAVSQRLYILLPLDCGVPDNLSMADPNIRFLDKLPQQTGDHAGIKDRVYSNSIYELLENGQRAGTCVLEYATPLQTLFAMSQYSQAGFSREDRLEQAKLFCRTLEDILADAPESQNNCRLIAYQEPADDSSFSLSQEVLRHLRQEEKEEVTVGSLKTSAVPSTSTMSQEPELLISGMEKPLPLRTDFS
SMILES,stimulation of hSTING [1],efficacy in humans [2],binding to variant STING alleles [3]
Cc1ccc2c(=O)c3cccc(CC(=O)O)c3oc2c1C [DMXAA],unable to stimulate,not found to be efficacious,
Nc1nc2c(ncn2[C@@H]2O[C@@H]3COP(=O)(O)O[C@H]4[C@@H](O)[C@H](n5cnc6c(=O)[nH]c(N)nc65)O[C@@H]4COP(=O)(O)O[C@H]3[C@H]2O)c(=O)[nH]1 [cyclic-di-GMP],,,bound
